This assay concerns the target T1, recombinant HsEg5 motor domain (amino acids 1-369-8His) (Homo sapiens, UniProt P52732).
T1 construct: recombinant HsEg5 motor domain (amino acids 1-369-8His); 8His (C)
T1 sequence (P52732 1-369): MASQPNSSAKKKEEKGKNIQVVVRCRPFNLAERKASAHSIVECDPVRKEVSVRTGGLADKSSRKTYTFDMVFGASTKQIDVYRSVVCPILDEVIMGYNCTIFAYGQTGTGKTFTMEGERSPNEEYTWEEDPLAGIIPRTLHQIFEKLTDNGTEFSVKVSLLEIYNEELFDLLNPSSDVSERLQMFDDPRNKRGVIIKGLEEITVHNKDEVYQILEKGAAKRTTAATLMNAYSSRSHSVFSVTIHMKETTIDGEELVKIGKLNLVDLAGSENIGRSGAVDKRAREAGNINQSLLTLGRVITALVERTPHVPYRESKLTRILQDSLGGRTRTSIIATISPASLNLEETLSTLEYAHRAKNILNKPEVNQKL
Nature of the assay: Malachite Green Assay of Eg5 motor ATPase activity. Type of assay: biochemical. The following applies: 6 nM enzyme, 300 μM ATP, 908 nM polymerized tubulin, 20 min pre-incubation, 20 min reaction at room temperature. As for the experimental part:
Enzymatic activity of the Eg5 motor and effects of inhibitors was measured using a malachite green assay, which measures phosphate liberated from ATP, and has been used previously to measure the activity of kinesin motors (Hackney D D, and Jiang W, Assays for kinesin microtubule-stimulated ATPase activity; Methods in Molecular Biology vol 164:65-71 (2001)). Enzyme was recombinant HsEg5 motor domain (amino acids 1-369-8His) and was added at a final concentration of 6 nM to 100 μl reactions. […]
5 μl of compound diluted in 12% DMSO was added to the wells of 96 well plates. […] The reactions were then quenched by the addition of 150 μl malachite green/ammonium molybdate reagent, and absorbance read at 650 nanometers exactly 5 min after quench using a Spectramax Plus plate reader (Molecular Devices). Data was graphed and IC50s calculated using ExCel Fit (Microsoft).

Consider `CCC(c1nc2n(c(=O)c1Cc1ccccc1)CCCS2)N(CCCN)C(=O)c1ccc(OC)cc1` (stereo not shown) [Example 4, 3,4-Dihydro-6-oxo-7-benzyl-8-{1-[N-(4-methoxybenzoyl)-N-(3-aminopropyl)amino]propyl}-2H,6H-pyrimido[2,1-b][1,3]thiazine], for which the IC50 worked out at 331 nM.

As usually defined, the IC50 is the concentration needed to halve the response being measured.

The record behind these values is patent US20070287703A1, “Fused Pyrimidones Useful in the Treatment and the Prevention of Cancer” (AstraZeneca AB, priority 2004, published 2007).
